Data: paper PMC2774616, “Cellular Assays for High-Throughput Screening for Modulators of Trk Receptor Tyrosine Kinases” (Current Chemical Genomics, 2008)
pEC50, pIC50: −log10 of the molar value. Values joined by “and” are separate entries in the source; they are usually repeats but may differ in a detail not shown here. Equal entries are not always repeated. Where two headings read alike, the source gives them in different places. One block for each compound: values may come before it.

What was measured:
[1] = tested on: Thapsigargin-induced NFAT reporter activity, TrkC-NFAT-bla CHO-K1 cells; assay: Inhibition of Thapsigargin-induced NFAT reporter activity in TrkC-NFAT-bla CHO-K1 cells; format: cell-based; conditions: for pIC50: TrkC cells, Thapsigargin 8 nM, 5 h, * values may not be accurate, curves did not reach saturation, read-out: IC50, TrkC, Thaps
Protocol: (§1) Cells in a sub-confluency state (or cryopreserved cells) were resuspended in Assay Medium (DMEM with GlutaMAX™ (Invitrogen, catalog number 10569) supplemented with 0.1% dialyzed FBS, 0.1 mM NEAA, 25 mM HEPES, 100 U/mL Penicillin and 100 µg/mL Streptomycin) and plated in a 384-well assay plate (Corning, Lowell, MA, catalog number 3712) at 10,000 cells (32 μL) per well. 32 μL of Assay Medium without cells were plated in Cell-free Control wells on the same plate. 4 µL 1% DMSO was added to each well to reach final DMSO concentration of 0.1% to mimic the screening situation where compounds dissolved in DMSO are added to test wells. Cells were then stimulated with 4 µL/well 10 x ligands (NGF, BDNF, NT-4 (Invitrogen, catalog number PHC7024), NT-3 or Thapsigargin (Sigma, St. Louis, MO)) over the indicated concentration range (1 pM ~ 50000 pM) for 5 hours before adding 8 µL/well 6X LiveBLAzer™-FRET B/G Substrate mixture (Invitrogen, catalog number K1096) for 2 hours. Fluorescence intensity at excitation 406 nm and emission 460 nm and 530 nm were obtained using Tecan Safire^2 fluorescence plate reader (Tecan, Durham, NC) (Table 1). After subtracting the average fluorescence intensity from the Cell-free Control wells, the 460nm/530nm emission ratio was calculated. Response Ratio is a measurement of the assay window and is calculated as the 460nm/530nm Emission Ratio of the stimulated wells divided by the 460nm/530nm Emission Ratio of the unstimulated wells. Response Ratios were plotted against test ligand concentrations in log scale and then analyzed using Prism software (GraphPad Software, Inc. San Diego, CA). Sigmoidal dose-response equation with varying slope was used to fit the data and generate EC50 values. Z’-factor values were calculated as: Z’-factor = 1 - [(3 x stdevunstim + 3 x stdevmaxstim) / (avgmaxstim – avgunstim)].
(§2) Cells were then stimulated with 4 µL of neurotrophins at 10 x EC80 concentrations (EC80 concentrations are: NGF, 0.77 nM; BDNF, 1 nM; NT-3, 0.72 nM; Thapsigargin, 8 nM) for 5 hours before beta-lactamase assay was performed as described above.

TrkA = tested on: TrkA; parameters: method as in PMID 7683492; conditions: cited from earlier work
human TrkA [2] = target: T1, human TrkA (Homo sapiens, UniProt P04629); assay: Inhibition of NGF-induced beta-lactamase activity in TrkA-NFAT-bla CHO-K1 cells; format: cell-based
T1 construct: Full length human TRKA, TRKB and TRKC cDNAs were synthesized by Blue Heron Biotechnology; expressed in transfected cells
T1 sequence (P04629 33-796): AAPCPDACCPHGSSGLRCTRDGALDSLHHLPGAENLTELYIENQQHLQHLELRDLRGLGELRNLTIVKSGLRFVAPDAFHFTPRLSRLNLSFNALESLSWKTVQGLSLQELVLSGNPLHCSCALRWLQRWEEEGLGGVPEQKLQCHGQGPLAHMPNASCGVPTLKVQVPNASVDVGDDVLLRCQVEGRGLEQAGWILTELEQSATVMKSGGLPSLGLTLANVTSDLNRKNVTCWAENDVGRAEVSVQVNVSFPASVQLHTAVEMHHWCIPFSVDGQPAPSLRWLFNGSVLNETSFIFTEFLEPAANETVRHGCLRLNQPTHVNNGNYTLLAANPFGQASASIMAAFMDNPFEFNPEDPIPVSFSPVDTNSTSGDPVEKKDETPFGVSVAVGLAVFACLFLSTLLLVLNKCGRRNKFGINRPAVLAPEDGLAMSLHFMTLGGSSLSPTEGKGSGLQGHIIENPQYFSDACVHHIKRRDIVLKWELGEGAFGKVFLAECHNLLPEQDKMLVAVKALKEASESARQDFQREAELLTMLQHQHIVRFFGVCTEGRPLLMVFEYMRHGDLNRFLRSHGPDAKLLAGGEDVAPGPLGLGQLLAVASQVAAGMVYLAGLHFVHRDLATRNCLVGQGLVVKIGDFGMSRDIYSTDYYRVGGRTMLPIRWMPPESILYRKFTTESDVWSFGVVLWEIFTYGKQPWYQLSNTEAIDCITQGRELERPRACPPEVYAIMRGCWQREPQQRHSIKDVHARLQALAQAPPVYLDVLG

human TrkB [3] = target: T2, human TrkB (Homo sapiens, UniProt Q16620); assay: Inhibition of BDNF-induced beta-lactamase activity in TrkB-NFAT-bla CHO-K1 cells; format: cell-based
T2 construct: Full length human TRKA, TRKB and TRKC cDNAs were synthesized by Blue Heron Biotechnology; expressed in transfected cells
T2 sequence (Q16620 32-838 isoform Q16620-4 limits assumed): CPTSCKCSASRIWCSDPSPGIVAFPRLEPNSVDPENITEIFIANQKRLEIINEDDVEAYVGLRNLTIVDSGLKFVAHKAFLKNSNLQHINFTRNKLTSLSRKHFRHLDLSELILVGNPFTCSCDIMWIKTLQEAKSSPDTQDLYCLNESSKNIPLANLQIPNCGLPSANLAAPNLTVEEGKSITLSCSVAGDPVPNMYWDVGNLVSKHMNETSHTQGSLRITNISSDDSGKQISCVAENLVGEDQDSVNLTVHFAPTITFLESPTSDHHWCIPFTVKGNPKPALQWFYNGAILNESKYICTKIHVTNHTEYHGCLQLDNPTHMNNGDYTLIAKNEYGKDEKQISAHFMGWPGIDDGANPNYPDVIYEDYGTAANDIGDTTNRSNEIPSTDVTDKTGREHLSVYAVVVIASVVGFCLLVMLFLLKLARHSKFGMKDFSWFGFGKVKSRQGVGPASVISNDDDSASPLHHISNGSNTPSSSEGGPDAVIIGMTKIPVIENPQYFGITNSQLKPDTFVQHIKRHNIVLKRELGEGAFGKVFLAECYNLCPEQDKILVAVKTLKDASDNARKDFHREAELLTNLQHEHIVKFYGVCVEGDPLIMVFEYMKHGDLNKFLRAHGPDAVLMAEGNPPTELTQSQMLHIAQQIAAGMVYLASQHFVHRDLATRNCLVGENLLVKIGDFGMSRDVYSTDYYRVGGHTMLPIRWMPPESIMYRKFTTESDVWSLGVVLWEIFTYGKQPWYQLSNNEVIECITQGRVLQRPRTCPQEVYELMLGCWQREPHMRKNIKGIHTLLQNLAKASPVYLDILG

[4] = tested on: Thapsigargin-induced NFAT reporter activity, TrkA-NFAT-bla CHO-K1 cells; assay: Inhibition of Thapsigargin-induced NFAT reporter activity in TrkA-NFAT-bla CHO-K1 cells; format: cell-based; conditions: for pIC50: TrkA cells, Thapsigargin 8 nM, 5 h, * values may not be accurate, curves did not reach saturation, read-out: IC50, TrkA, Thaps
Protocol: as §1, §2

[5] = tested on: Thapsigargin-induced NFAT reporter activity, TrkB-NFAT-bla CHO-K1 cells; assay: Inhibition of Thapsigargin-induced NFAT reporter activity in TrkB-NFAT-bla CHO-K1 cells; format: cell-based; conditions: for pIC50: TrkB cells, Thapsigargin 8 nM, 5 h, * values may not be accurate, curves did not reach saturation, read-out: IC50, TrkB, Thaps
Protocol: as §1, §2

human TrkC [6] = target: T3, human TrkC (Homo sapiens, UniProt Q16288); assay: Inhibition of NT-3-induced beta-lactamase activity in TrkC-NFAT-bla CHO-K1 cells; format: cell-based
T3 construct: Full length human TRKA, TRKB and TRKC cDNAs were synthesized by Blue Heron Biotechnology; expressed in transfected cells
T3 sequence (Q16288 32-825 isoform Q16288-3 limits assumed): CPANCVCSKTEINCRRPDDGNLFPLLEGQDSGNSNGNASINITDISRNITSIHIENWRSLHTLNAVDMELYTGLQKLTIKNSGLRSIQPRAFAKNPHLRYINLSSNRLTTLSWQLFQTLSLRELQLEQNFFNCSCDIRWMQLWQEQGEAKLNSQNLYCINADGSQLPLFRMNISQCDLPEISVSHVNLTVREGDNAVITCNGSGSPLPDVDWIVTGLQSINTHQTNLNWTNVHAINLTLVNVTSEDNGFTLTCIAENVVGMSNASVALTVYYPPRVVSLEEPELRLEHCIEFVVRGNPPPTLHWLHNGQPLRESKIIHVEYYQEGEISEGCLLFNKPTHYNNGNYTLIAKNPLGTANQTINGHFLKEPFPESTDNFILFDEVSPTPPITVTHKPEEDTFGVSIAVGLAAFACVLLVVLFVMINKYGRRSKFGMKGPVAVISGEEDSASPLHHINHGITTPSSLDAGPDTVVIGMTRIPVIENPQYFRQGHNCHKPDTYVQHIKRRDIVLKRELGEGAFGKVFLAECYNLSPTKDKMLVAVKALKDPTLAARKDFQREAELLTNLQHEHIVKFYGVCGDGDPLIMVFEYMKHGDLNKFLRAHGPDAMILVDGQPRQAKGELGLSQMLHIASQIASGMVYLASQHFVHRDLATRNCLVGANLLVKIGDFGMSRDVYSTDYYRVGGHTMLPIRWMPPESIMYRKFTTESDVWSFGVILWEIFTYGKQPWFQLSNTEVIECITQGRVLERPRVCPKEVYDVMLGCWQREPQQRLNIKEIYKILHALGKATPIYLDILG
Protocol: as §1

[7] = tested on: NFAT-bla reporter, Trk-NFAT-bla CHO-K1 cells; assay: Thapsigargin stimulation of Trk-NFAT-bla CHO-K1 cell lines; format: cell-based; conditions: used for stimulation in inhibitor assay
Protocol: as §1, with “Cells were then stimulated with 4 µL/well 10 x ligands (NGF, BDNF, NT-4 (Invitrogen, catalog number PHC7024), NT-3 or Thapsigargin (Sigma, St. Louis, MO)) over the indicated concentration range (1 pM ~ 50000 pM) for 5 hours before adding 8 µL/well 6X LiveBLAzer™-FRET B/G Substrate mixture (Invitrogen, catalog number K1096) for 2 hours.” left out, “Sigmoidal dose-response equation with varying slope was used to fit the data and generate EC50 values. Z’-factor values were calculated as: Z’-factor = 1 - [(3 x stdevunstim + 3 x stdevmaxstim) / (avgmaxstim – avgunstim)].” left out

human TrkA [8] = target: T1, human TrkA; assay: Neurotrophin dose response, beta-lactamase reporter assay in TrkA-NFAT-bla CHO-K1 cells; format: cell-based
Excerpt: (§3) NFAT beta-lactamase reporter line NFAT-bla CHO-K1 cells (Invitrogen, Carlsbad, CA, catalog number K1078) were transfected using Lipofectamine™ LTX transfection reagent (Invitrogen, Carlsbad, CA) with pcDNA6-TRKA, pcDNA6-TRKB and pcDNA6-TRKC and selected for blasticidin-resistance. Blasticidin-resistant TrkA transfected cells were stimulated with NGF (Invitrogen, catalog number 13257-019), TrkB transfected cells with BDNF (Invitrogen, catalog number PHC7074) and TrkC transfected cells with NT-3 (Invitrogen, catalog number PHC7034) for 5 hours before neurotrophin stimulated beta-lactamase expressing cells were collected by FACS as single cells onto 96-well plates. The survived clones that responded to the respective ligand were selected and expanded. The clone with the best response to each ligand was further tested in a 384-well format for the dose response of neurotrophins and inhibitors and in a 96-well format for RNAi knock-down.
as §1

human TrkC [9] = target: T3, human TrkC; assay: Neurotrophin dose response, beta-lactamase reporter assay in TrkC-NFAT-bla CHO-K1 cells; format: cell-based
Excerpt: as §3, §1

human TrkB [10] = target: T2, human TrkB; assay: Neurotrophin dose response, beta-lactamase reporter assay in TrkB-NFAT-bla CHO-K1 cells; format: cell-based
Excerpt: as §3, §1

[11] = 30 min pretreatment, BDNF at EC80 1 nM, 5 h, read-out: IC50, TrkB, BDNF
[12] = 30 min pretreatment, NT-3 at EC80 0.72 nM, 5 h, read-out: IC50, TrkC, NT-3
[13] = at the highest concentration tested
[14] = 460nm/530nm ratio stimulated vs unstimulated
[15] = 5 h stimulation, 0.1% DMSO, * values may not be accurate, curves did not reach saturation

pIC50 (human TrkA [2]; 30 min pretreatment, NGF at EC80 0.77 nM, 5 h, read-out: IC50, TrkA, NGF): 5.88
pIC50 (human TrkA [2]; NGF-induced, read-out: IC50, TrkA-mediated NFAT-bla reporter activity): ~6.00
pIC50 (human TrkB [3]; [11]): 6.00
pIC50 (human TrkB [3]; BDNF-induced, read-out: IC50, TrkB-mediated NFAT-bla reporter activity): ~6.00
pIC50 (human TrkC [6]; [12]): 5.88
pIC50 (human TrkC [6]; NT-3-induced, read-out: IC50, TrkC-mediated NFAT-bla reporter activity): ~6.00
Compound: CC(C)(C)c1cc(/C=C(\C#N)C(N)=S)cc(C(C)(C)C)c1O [AG879]
pIC50 [1]: 6.64
concentrations inhibiting NGF induced TrkA autophosphorylation and PLC-γ phosphorylation (TrkA): micro-molar concentrations
pIC50 [4]: 6.95
pIC50 [5]: 7.29

Compound: Cn1cc(/C=C2\C(=O)Nc3cccnc32)c2ccccc21 [GW441756]
pIC50 [1]: 5.05
pIC50 [4]: 5.55
pIC50 [5]: 5.09

Compound: COC(=O)[C@@]1(O)C[C@H]2O[C@]1(C)n1c3ccccc3c3c4c(c5c6ccccc6n2c5c31)C(=O)NC4 [K252a]
pIC50 [1]: 6.30
effect on Thapsigargin induced reporter activity, TrkC cells (in words) [1, 13]: partial inhibitory effect
IC50 in words, BDNF-induced beta-lactamase activity in TrkB cells (human TrkB [3]): low nano-molar
pIC50 (human TrkB [3]; [11]): 7.96
pIC50 [4]: 6.24
effect on Thapsigargin induced reporter activity, TrkA cells (in words) [4, 13]: partial inhibitory effect
pIC50 [5]: < 6.00
effect on Thapsigargin induced reporter activity, TrkB cells (in words) [5, 13]: partial inhibitory effect
IC50 in words, NT-3-induced beta-lactamase activity in TrkC cells (human TrkC [6]): low nano-molar
pIC50 (human TrkC [6]; [12]): 7.52

Compound: C/C=C(/C)C(=O)O[C@H]1C(C)=C2[C@H]([C@@H]1OC(=O)CCCCCCC)[C@@](C)(OC(C)=O)C[C@H](OC(=O)CCC)[C@@]1(O)[C@H]2OC(=O)[C@@]1(C)O [Thapsigargin]
EC80 concentration, Thapsigargin [7]: 8 nM

maximum response ratio / response over baseline, TrkA-NFAT-bla CHO-K1 (human TrkA [8]; [14]): 3 fold
pEC50 (human TrkA [8]; [15]): ~7.80 and 7.80
maximum response ratio, TrkC-NFAT-bla CHO-K1 (human TrkC [9]; [14]): 8.5
pEC50 (human TrkC [9]; [15]): 10.03 and 10.05
EC80 concentration, TrkC cells (human TrkC [9]; used for stimulation in inhibitor assay): 0.72 nM
maximum response ratio, TrkB-NFAT-bla CHO-K1 (human TrkB [10]; [14]): 13
pEC50 (human TrkB [10]; 5 h stimulation, 0.1% DMSO): 8.60
Compound: NT-3: neurotrophin 3, preferred ligand of TrkC
